Data taken from paper PMC10569036.

Assay: shake flask on a mixture of 185; loss from the water phase only; LC-Orbitrap peak areas
Conditions: room

Row | log partition 1-octanol / HPLC water, unbuffered, traces of methanol / DMSO [log10] | log partition butyl acetate / HPLC water, unbuffered, traces of methanol / DMSO [log10] | log partition chloroform / HPLC water, unbuffered, traces of methanol / DMSO [log10] | log partition cyclohexane / HPLC water, unbuffered, traces of methanol / DMSO [log10] | log partition dichloromethane / HPLC water, unbuffered, traces of methanol / DMSO [log10] | log partition n-hexane / HPLC water, unbuffered, traces of methanol / DMSO [log10] | log partition n-octane / HPLC water, unbuffered, traces of methanol / DMSO [log10] | log partition n-undecane / HPLC water, unbuffered, traces of methanol / DMSO [log10] | log partition oleylalcohol / HPLC water, unbuffered, traces of methanol / DMSO [log10] | log partition toluene / HPLC water, unbuffered, traces of methanol / DMSO [log10] | Compound
1 | -0.1403 | -0.382 | 0.06183 | -0.6197 | -0.09834 | -0.5466 | -0.6932 | -0.7318 | -0.144 | -0.5154 | CC(C)c1cccc(O)c1
2 | 3.35 | 5.299 | 1.307 | 3.351 | 4.823 | 2.027 | 2.104 | 2.029 | 3.139 | 4.525 | CCCCC(O)(Cn1cncn1)c1ccc(Cl)cc1Cl (stereo not shown)
3 | -0.06689 | 0.7696 | 1.426 | -0.7757 | 1.412 | -1.074 | -1.39 | -1.078 | -0.5711 | -0.2898 | CC(=O)CCc1ccc(OC(C)=O)cc1
4 |  |  | 3.591 |  | 5.525 |  |  |  |  | 4.586 | CN1C(=O)CCS(=O)(=O)C1c1ccc(Cl)cc1 (stereo not shown)
5 | 0.8444 | 0.4506 | 0.8919 | -0.4431 | 0.1616 | -0.7051 | -0.2813 | -0.7594 | 0.2271 | -0.3508 | CC(=O)Oc1ccc(C(C)=O)cc1
6 | 0.5136 | 0.7692 | 0.52 |  | 0.8573 |  |  |  | 0.7926 | 0.01564 | CC(=O)Nc1ccc(C)cc1C
7 | 0.06578 | -0.6544 | 0.08964 | -0.4267 | -0.4317 | -0.4698 | -0.4633 | -0.5006 | -0.3469 | -0.3594 | CC(C)(C)c1ccc(O)c(O)c1
8 | 0.3418 | 1.067 | 3.139 | 0.5577 | 2.123 | -0.5531 | 0.3458 | -0.4236 | -0.165 | 1.554 | CN(C)c1ccc(Cc2ccc(N(C)C)cc2)cc1

The remaining lines, values behind:

Row | Compound | log partition 1-octanol / HPLC water, unbuffered, traces of methanol / DMSO [log10] | log partition butyl acetate / HPLC water, unbuffered, traces of methanol / DMSO [log10] | log partition chloroform / HPLC water, unbuffered, traces of methanol / DMSO [log10] | log partition cyclohexane / HPLC water, unbuffered, traces of methanol / DMSO [log10] | log partition dichloromethane / HPLC water, unbuffered, traces of methanol / DMSO [log10] | log partition n-hexane / HPLC water, unbuffered, traces of methanol / DMSO [log10] | log partition n-octane / HPLC water, unbuffered, traces of methanol / DMSO [log10] | log partition n-undecane / HPLC water, unbuffered, traces of methanol / DMSO [log10] | log partition oleylalcohol / HPLC water, unbuffered, traces of methanol / DMSO [log10] | log partition toluene / HPLC water, unbuffered, traces of methanol / DMSO [log10]
9 | C=C(C)C(=O)OCCOCCOC(=O)C(=C)C | 0.2475 | -0.01795 | 0.3491 | -0.1638 | 0.4156 | -0.1437 | -0.3242 | -0.3846 | 0.1237 | -0.03291
10 | CCCCCCCCCCCCN1CCCCCC1=O | -0.1202 | -1.099 | 0.3816 | -0.5564 | -0.008559 | -0.8813 | -0.4901 | -0.9092 | -0.7875 | -0.5083
11 | O=P(OC(CCl)CCl)(OC(CCl)CCl)OC(CCl)CCl | 0.3708 | 0.4116 | 0.2335 | 0.5355 | 0.1218 | 0.2465 | 0.2541 | 0.3474 | 0.1893 | 0.1777
12 | FC(F)C(F)(F)OCC(Cn1cncn1)c1ccc(Cl)cc1Cl (stereo not shown) | 1.148 | 1.223 | 0.6534 | 0.9109 | 1.238 | 0.4737 | 0.5004 | 0.1193 | 0.4709 | 1.159
13 | O=C(O)CCN(C1(C(=O)NO)CCCC1)S(=O)(=O)c1ccc(Oc2ccc(F)cc2)cc1 | -0.5893 | 1.182 | 0.09364 | -1.331 | 0.4348 | -1.472 | -1.686 | 0.1413 | 0.5204 | -0.3191
14 | Nc1nc(Cl)nc2c1ncn2[C@H]1C[C@H](O)[C@@H](CO)O1 | 0.3863 | -0.3544 | -0.3218 | -1.47 | -0.9957 | -1.176 | -1.209 | -1.567 | -0.4024 | -0.8939
15 | CCCCc1ccc(O)cc1 | -0.1262 | -0.005316 | -0.1217 | -0.5302 | 0.2438 | -0.849 | -0.6939 | -0.8247 | -0.3004 | -0.3739
